The test system of experiment [1] is spontaneously hypertensive rats (SHR). Description: Method 12: SHR Rat Combination Therapy, blood pressure by telemetry. Particulars: 0.007% in drinking water, day 7. The format is in vivo.
For the next experiment, the target named is T1, PDE5 enzyme (Homo sapiens, UniProt O76074).
T1 construct: The PDE5 enzyme isolated from human platelets; from tissue; host or cells: human platelets
Description: Method 1: Human Platelet PDE5 Enzyme Inhibition Scintillation Proximity Assay. It is filed as biochemical. The conditions noted are these: METHOD 1: PDE5 IC50, Table B, WO2004096810 examples. The gist of the method:
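Human platelet PDE5 hydrolysing 500 nM cGMP (3:1 unlabelled:[3H]) in Tris-HCl pH 7.4 with MgCl2 and BSA, 60 min at 30 °C. Reaction stopped with yttrium silicate SPA beads and [3H]GMP counted by scintillation. IC50 from sigmoid curves over a 10-point half-log dilution series, in duplicate.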
Background: In a scintillation proximity assay essentially only radioactivity close to the scintillant gives light.

Another experiment addresses T2, PDE11 enzyme (Homo sapiens, UniProt Q9HCR9, DUP921-921).
T2 construct: FLAG (N); made in house; host or cells: Sf9 insect cells (baculovirus, pFastBac)
Put plainly: Method 3: Human Recombinant PDE11 Enzyme Inhibition Scintillation Proximity Assay (SPA). The format is biochemical. The conditions noted are these: WO2004096810 examples. Here is the method: Method 3: Human Recombinant PDE11 Enzyme Inhibition Scintillation Proximity Assay (SPA)
PDE11 Expression and Purification:
Incubate at 27° C. with 220 rpm shaking for 48 hours. Harvest the infected cells by pelleting at 2000 rpm for 10 minutes at 4° C. Store the infected cell pellet at −80° C. until ready for purification. Resuspend the thawed cell pellets to 1×10^7 cells/ml (=20 ml buffer consisting of 20 mM Hepes (pH7.2), 1 mM EDTA, 20 mM sucrose, 150 mM NaCl and protease inhibitor tablets). Mix thoroughly and allow to stand on ice for 10 minutes. Sonicate for 5×5 seconds, on ice. Spin the mixture at 12,000 rpm for 10 minutes at 4° C. in SS34. Store the insoluble pellet at −80° C., and proceed to the purification of the soluble material. • (b) Purification: Prepare the column (1.0 cm diameter, Kontes) by rinsing the empty column twice with TBS. Then mix beads (Anti-FLAG M2 Agarose, Sigma) with TBS and add to the column—allow the beads to settle. Wash the column with 3 column volumes of 0.1M glycine (pH3.5). […] Apply the extract to the column and allow the extract to enter by gravity flow. Reapply the flow-through. Wash the column with 15 column volumes of TBS. Elute the protein with 5×1 ml aliquots of FLAG peptide (Sigma) (i.e., 100 ug/ml in TBS). Elute the remaining protein with 1 ml 0.1M glycine, and immediately add 25 ul 1M Tris pH8 to neutralize. Method 3A: Alternative Human Recombinant PDE11 Enzyme Inhibition Scintillation Proximity Assay (SPA)

In another experiment the target is PDE6 enzyme. The conditions noted are these: read-out: METHOD 2: PDE6 IC50; Table F, WO2004096810 examples. An excerpt:
Method 2: Human Retina PDE6 Enzyme Inhibition Scintillation Proximity Assay (SPA)
The inhibition of PDE6 enzyme activity by a test compound can be measured in accordance with the in vitro assay of Method 1, but instead using semi-purified PDE6 enzyme isolated from human, bovine or canine retina in place of PDE5 enzyme. […] [3H]GMP binds to yttrium silicate SPA beads and is detected by scintillation counting. • PDE6 Purification: PDE6 can be isolated and purified from the following: Soluble rod PDE6/Rod Outer Segment PDE6 from Bovine eyes (Charles River Ltd, France); Cone PDE6 from Canine eyes (LAS); or Soluble rod and Cone PDE6 from Human eyes (I.I.A.M.).
While supporting the eye with the cornea uppermost, make a small incision through the conjunctiva below the level of the iris. The incision should be sufficient to allow the humor to escape through the cut. Using fine scissors, cut around the cornea to enable it to be lifted off as a flap. Using a small hook, engage the lens and gently pull it out of orbit, taking care not to pull out the retina at the same time. Allow the retina to drop down of its own accord to the base of the orbit.
Lift the retina with care and locate the optic nerve. Cut through the optic nerve and transfer the retina to a small dish containing a few ml of homogenisation buffer. Gently float the retina out on the surface of the buffer and remove any obvious pigmented material from the iris. Place the retina in a second dish with clean buffer to remove last traces of pigment and then transfer to a 50 ml Corning Costar centrifuge tube (Sigma) and keep on ice. • PDE6 Isolation and Purification from Retina: Allow 2 mls of the homogenisation buffer per bovine retina and 1 ml per retina for dog and human. Homogenise using hand-held homogeniser 3×5 second bursts cooling on ice between each burst. Filter homogenate through two layers of surgical gauze. Spin at 100,000 g for 60 minutes at 4° C. […] Run through FPLC (Pharmacia FPLC LKB/FRAC-100, Pharmacia) or aliquot and store in liquid nitrogen as needed. Method 2A: Alternative Human Retina PDE6 Enzyme Inhibition Scintillation Proximity Assay (SPA)

Where [2] appears, read: Table F, read-out: METHOD 3: PDE11 IC50.

Molecules are shown by their SMILES. Read-outs that look alike come from different tables or passages of the source.

T2 sequence (Q9HCR9 with tags, fused parts or gaps DUP921-921 limits assumed): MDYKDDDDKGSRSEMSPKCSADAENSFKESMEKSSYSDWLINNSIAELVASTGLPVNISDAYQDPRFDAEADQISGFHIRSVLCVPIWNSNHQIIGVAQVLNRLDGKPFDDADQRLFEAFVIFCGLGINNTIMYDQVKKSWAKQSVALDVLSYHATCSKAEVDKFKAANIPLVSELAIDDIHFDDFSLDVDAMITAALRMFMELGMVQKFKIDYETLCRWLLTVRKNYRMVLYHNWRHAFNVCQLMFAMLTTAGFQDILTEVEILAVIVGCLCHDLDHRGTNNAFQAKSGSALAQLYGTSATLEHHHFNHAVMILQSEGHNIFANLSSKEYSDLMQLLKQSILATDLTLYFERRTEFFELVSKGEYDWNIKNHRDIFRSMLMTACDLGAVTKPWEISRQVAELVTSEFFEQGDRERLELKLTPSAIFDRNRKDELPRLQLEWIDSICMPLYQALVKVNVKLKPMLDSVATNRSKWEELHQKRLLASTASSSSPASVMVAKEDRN

In the case of `CCOC(=O)[C@H](CCc1ccccc1)N[C@@H](C)C(=O)N1CCC[C@H]1C(=O)O` [Enalapril, enalapril], the “maximal reduction of blood pressure from pre-dose baseline in comparison to vehicle treated group” value in experiment [1] is given as 22±2 mmHg.
At PDE5 enzyme, `CCOCCn1nc(C)c2nc(N3CCN[C@H](C)C3)nc(Nc3ccnc(C)n3)c21` [WO2004096810 Example 220] had an IC50 of 3.6 nM.
As to `CCOCCn1nc(C)c2nc(N3CCN[C@H](C)C3)nc(Nc3nccc(C)n3)c21` [WO2004096810 Example 221], the 50% inhibitory concentration (IC50) at PDE5 enzyme stood at 35.4 nM.
On the same count and under the same terms, for `CCOCCn1nc(C)c2nc(N3CCN[C@H](C)C3)nc(Nc3cc(C(F)(F)F)ccn3)c21` [WO2004096810 Example 222] the value was 10.1 nM; for `CCOCCn1nc(COC)c2nc(N(C)CC)nc(Nc3ccncn3)c21` [WO2004096810 Example 225], 1.33 nM.
In turn, `CCOCCn1nc(COC)c2nc(N(C)CCOC)nc(Nc3cc(C)ccn3)c21` [WO2004096810 Example 226] gave an IC50 against PDE5 enzyme of 0.83 nM.
As to `CCOCCn1nc(COC)c2nc(N(C)CCO)nc(Nc3cc(C)ccn3)c21` [WO2004096810 Example 227], half-maximal inhibition against PDE5 enzyme (IC50) was put at 0.35 nM.
Still for that read-out and setting: for `CCOCCn1nc(CO)c2nc(N(C)CC)nc(Nc3ccncn3)c21` [WO2004096810 Example 228] the value was 3.09 nM.
Still for that read-out and setting: for `CCOCCn1nc(CO)c2nc(N3C[C@@H]4C[C@H]3CN4)nc(Nc3cc(C)ccn3)c21` [WO2004096810 Example 229] the value was 1.61 nM; for `Cc1ccnc(Nc2nc(N3C[C@@H]4C[C@H]3CN4)nc3c(C)nn(CCOCC(F)(F)F)c23)c1` [WO2004096810 Example 231], 10.3 nM.
Same read-out and setting: for `CCOCCn1nc(C)c2nc(N3C[C@@H]4C[C@H]3CN4)nc(Nc3cnc(C)c(C)c3)c21` [WO2004096810 Example 233] the value was 3.85 nM; for `CCOCCn1nc(C)c2nc(N3C[C@@H]4C[C@H]3CN4)nc(Nc3cc(C)cc(C)n3)c21` [WO2004096810 Example 234], 8.79 nM; for `CCOCCn1nc(C)c2nc(N3C[C@@H]4C[C@H]3CN4)nc(Nc3cccc(C)n3)c21` [WO2004096810 Example 235], over 100 nM.
`CCOCCn1nc(C)c2nc(N3C[C@@H]4C[C@H]3CN4)nc(Nc3cc(C)ccn3)c21` [WO2004096810 Example 236] showed an IC50 against PDE5 enzyme of 2.51 nM.
On PDE5 enzyme, `CCOCCn1nc(C)c2nc(N3CC4CCC3CN4)nc(Nc3cc(C)ccn3)c21` (stereo not drawn) [WO2004096810 Example 237] showed an IC50 of 0.67 nM.
On the same count and under the same terms, for `CCOCCn1nc(C)c2nc(N3C[C@@H]4C[C@H]3CN4)nc(Nc3ccc(C)cn3)c21` [WO2004096810 Example 240] the value was over 100 nM.
In the case of `CCOCCn1nc(C)c2nc(N3C[C@@H]4C[C@H]3CN4)nc(Nc3ccncn3)c21` [WO2004096810 Example 241], the half-inhibitory concentration (IC50) against PDE5 enzyme is 48.7 nM.
Same read-out and setting: for `CCOCCn1nc(COC)c2nc(N3CC4CCC(C3)N4)nc(Nc3cc(C)ccn3)c21` [WO2004096810 Example 242] the value was 0.62 nM.
Regarding `CCOCCn1nc(C)c2nc(N3CC4C[C@@H]3CN4)nc(Nc3cc(C)ccn3)c21` [WO2004096810 Example 244], half-maximal inhibition at PDE5 enzyme (IC50) was put at 2.54 nM.
As to `Cc1ccnc(Nc2nc(N(C)[C@H]3CCN(C)C3)nc3c(C)nn(CCOCC(F)(F)F)c23)c1` [WO2004096810 Example 245], the figures for the IC50 at PDE11 enzyme (setting [2]), at PDE5 enzyme and on PDE6 enzyme were 390 nM, 1.55 nM and 250 nM, respectively.
In the case of `Cc1nccc(Nc2nc(N3CCN[C@H](C)C3)nc3c(C)nn(CCOCC(F)(F)F)c23)n1` [WO2004096810 Example 246], the IC50 on PDE11 enzyme (setting [2]) was determined as 4320 nM; against PDE5 enzyme, 4.46 nM; on PDE6 enzyme, 657 nM.
The matching figures for `CCc1nn(CCOCC(F)(F)F)c2c(Nc3ccnnc3)nc(N3CCN[C@H](C)C3)nc12` [WO2004096810 Example 248]: 316 nM, 0.3 nM and 9.92 nM.
The matching figures for `CCc1nn(CCOCC(F)(F)F)c2c(Nc3ccncn3)nc(N3CCN[C@H](C)C3)nc12` [WO2004096810 Example 249]: 1190 nM, 0.16 nM and 5.1 nM.
Consider `CCc1nn(CCOCC(F)(F)F)c2c(Nc3ccnc(C)n3)nc(N3CCN[C@H](C)C3)nc12` [WO2004096810 Example 250], for which the IC50 at PDE11 enzyme (setting [2]) was 3120 nM; on PDE5 enzyme, 2.37 nM; at PDE6 enzyme, 221 nM.
Take `CCc1nn(CCOCC(F)(F)F)c2c(Nc3cc(C)ncn3)nc(N(C)C3CCN(C)CC3)nc12` [WO2004096810 Example 251]: the IC50 came out at 1860 nM at PDE11 enzyme (METHOD 3: PDE11 IC50, Table F); 0.25 nM at PDE5 enzyme; 9.51 nM on PDE6 enzyme.
With `COCc1nn(CCOCC(F)(F)F)c2c(Nc3cccc(C)n3)nc(N3CCN[C@H](C)C3)nc12` [WO2004096810 Example 252], the IC50 was determined as 874 nM on PDE11 enzyme (setting [2]), 2.81 nM at PDE5 enzyme and 307 nM on PDE6 enzyme.
The matching figures for `COCc1nn(CCOCC(F)(F)F)c2c(Nc3cccc(C)c3)nc(N3CCN[C@H](C)C3)nc12` [WO2004096810 Example 253]: 312 nM, 1.2 nM and 100 nM.
The matching figures for `CCN(C)c1nc(Nc2ccc(=O)n(C)c2)c2c(n1)c(COC)nn2CCOCC(F)(F)F` [WO2004096810 Example 254]: 2880 nM, 0.59 nM and 188 nM.
`CCOCc1nn(CCOCC(F)(F)F)c2c(Nc3cccc(C)n3)nc(N3CCN[C@H](C)C3)nc12` [WO2004096810 Example 255]: the results for the IC50 at PDE11 enzyme (setting [2]), against PDE5 enzyme and on PDE6 enzyme were 937 nM, 1.43 nM and 207 nM, respectively.
The matching figures for `CCOCc1nn(CCOCC(F)(F)F)c2c(Nc3cc(C)ccn3)nc(N3CCN[C@H](C)C3)nc12` [WO2004096810 Example 256]: 913 nM, 3.82 nM and 275 nM.
The like results for `Cc1cccc(Nc2nc(N3CCNCC3)nc3c(C)nn(CCOCC(F)(F)F)c23)n1` [WO2004096810 Example 258] were, in that order, 215 nM, 1.99 nM and 198 nM.
Consider `COCc1nn(CCOCC(F)(F)F)c2c(Nc3cc(C)ccn3)nc(N3CC4CCC(C3)N4)nc12` [WO2004096810 Example 259], for which the IC50 was 199 nM on PDE11 enzyme (METHOD 3: PDE11 IC50, Table F); 3.74 nM against PDE5 enzyme; 204 nM on PDE6 enzyme.
On PDE5 enzyme, `CCc1nn(CCOC)c2c(Nc3cc(C)ccn3)nc(NC)nc12` [compound 1] had an IC50 of 16.2 nM.
Still for that read-out and setting: for `CCOCCn1nc(CC)c2nc(N(C)C3CCN(C)CC3)nc(Nc3ccncn3)c21` [compound 2] the value was 0.48 nM.

As a reminder, the IC50 is the concentration at which inhibition is half-maximal.
